Reference: US10883116B2, “Transduction buffer” (Koninklijke Nederlandse Akademie van Wetenschappen, priority 2013, dated 2021)
Read-outs that look alike come from different tables or passages of the source. Values belong to the compound of their own block, whether it stands above or below them.

Experiments:
[1] = tested on: murine embryonic fibroblasts (MEFs); assay: β-Lactamase protein transduction assay (CCF2-AM), protocol 3/700; settings: for protein transducing activity of hypertonicity-inducing compound: tonicity adjusted to 700 mOsm/Kg with the compound, 25 mM NDSB201 and osmoprotectants; for effect of endocytic pathway inhibitor on protein transduction / enhancement of protein transduction by GABA agonist: 1 μM β-lactamase; for enhancement of protein transduction by GABA agonist: 25 mM NDSB201 plus GABA agonist, NDSB201 alone = 100%; for protein transduction activity (in words): 25 mM compound, compared with NDSB201 (#01) or parent compound; for effect of growth factor or peptide on β-lactamase transduction of MEFs: 25 mM NDSB201, 30 mM Glycerol, 15 mM Glycine
Description: To further characterize the protein transduction process we analyzed the effect of time, osmolality, transduction compound concentration and protein concentration on the transduction process. To this end, we set up a β-Lactamase protein transduction assay and measured intracellular β-Lactamase activity using CCF2-AM, an intracellular fluorescent β-Lactamase substrate that changes emission wavelength when cleaved by the enzyme (FIG. 3A). […] While we used the immortalized COS7 cell line in our initial studies, we wanted to know if the compound-mediated protein transduction would also allow the transduction of protein into primary cells. We therefore transduced murine embryonic fibroblasts (MEFs) with β-Lactamase (1 μM final concentration), using NaCl-adjusted hypertonic media (700 mOsm/Kg) and 25 mM NDSB201. β-Lactamase activity was set at 1 at the start of the experiment and relative intracellular β-Lactamase activity was measured as a function of time (FIG. 3B, bars). As a control, β-Lactamase transduction was measured in isotonic media in the presence of 25 mM NSDB201 (FIG. 3B, open circles).
β-lactamase transduction was performed using the 3/700 protocol above in murine embryonic fibroblasts (MEFs). A black, clear-bottom 96 well-plate was coated with 0.15 mg/ml of Poly-D-Lysine for 1 h at room temperature. 12,000 MEFs cells were seeded per well in MEF media without antibiotics. Next day, cells were transduced using the transduction protocol 3/700 as describe above. […] Na- or Rb-salt was added to adjust the final tonicity to 700 mOsm/Kg. […] After 3 hrs., the transduction media was replaced by fresh MEF media for 30 min. Subsequently, cells were washed once with phenol-red-free DMEM. β-lactamase activity was measured using the CCF2-AM kit following the manufacturer's instructions. In brief, 120 μl of CCF2-AM loading media was added per well and cells were incubated for 1 h at room temperature. Cells were washed two times with DMEM phenol-red free and incubated for an additional 30-60 min. Fluorescence emission was measured at […] and 510 nm following manufacturer's instructions. All tests were done in triplicate.

COS7 cells = assay: Oct4 luciferase reporter (6×OCT4-TK-Luc) protein transduction assay; format: cell-based
[2] = tested on: MEFs cells expressing GAL3-GFP protein; assay: GAL3-GFP macropinosome vesicle leakage reporter assay; settings: 700/3 conditions
[3] = tested on: murine embryonic fibroblasts (MEFs); assay: BrdU incorporation (cell proliferation) after transduction of MEFs; settings: BrdU 24 hrs after start of transduction, 25 mM compound, 700 mOsm/Kg
[4] = 3 hours, 700 mOsm/Kg NaCl, 25 mM NDSB201
[5] = 3 hours, 25 mM NDSB201, tonicity adjusted with NaCl

protein transducing activity of hypertonicity-inducing compound ([1]; 3 hours): failed to induce protein transduction
Compound: OC[C@H]1O[C@@H](O[C@@H]2[C@@H](CO)OC(O)(CO)[C@H]2O)[C@H](O)[C@@H](O)[C@H]1O (mixture of isomers) [Lactulose]

Compound: CN(C)CCCN1c2ccccc2Sc2ccc(Cl)cc21 [Chlorpromazine, reference compound]
effect of endocytic pathway inhibitor on protein transduction [1, 4]: ineffective in inhibiting protein transduction

Compound: [Cl-].[Cs+] [CsCl, caesium chloride]
protein transducing activity of hypertonicity-inducing compound ([1]; 3 hours): had protein transducing activity

Compound: C=C1[C@@H](C)[C@H]2[C@H](Cc3ccccc3)NC(=O)[C@]23[C@H](OC(C)=O)/C=C/[C@@](C)(O)C(=O)[C@@H](C)C/C=C/[C@H]3[C@@H]1O [Cytochalasin D, reference compound]
effect of endocytic pathway inhibitor on protein transduction [1, 4]: completely blocked protein transduction

effect of endocytic pathway inhibitor on protein transduction [1, 4]: strongly inhibited
Compound: CN(C)c1nc(N)c(C(=O)N=C(N)N)nc1Cl.Cl [DMA, 5-(N,N-dimethyl) amiloride hydrochloride, reference compound]

Compound: O=C(N/N=C/c1ccc(O)c(O)c1)c1cc2ccccc2cc1O [Dynasore, reference compound]
effect of endocytic pathway inhibitor on protein transduction [1, 4]: ineffective in inhibiting protein transduction

Compound: [Cl-].[K+] [KCl, potassium chloride]
protein transducing activity of hypertonicity-inducing compound ([1]; 3 hours): had protein transducing activity

Compound: C/C1=C/C(=O)O[C@@H]2C[C@@H](CC[C@H](C)/C=C\C=C\CC1)O[C@@](O)([C@@H]1CSC(=O)N1)C2 [Latrunculin A, reference compound]
effect of endocytic pathway inhibitor on protein transduction [1, 4]: completely blocked protein transduction

Compound: [Cl-].[Li+] [LiCl, lithium chloride]
protein transducing activity of hypertonicity-inducing compound ([1]; 3 hours): had protein transducing activity

protein transducing activity of hypertonicity-inducing compound ([1]; 3 hours): failed to induce protein transduction
Compound: OC[C@@H](O)[C@@H](O)[C@H](O)[C@H](O)CO [Manitol]

Compound: NCc1cc(=O)[nH]o1 [Muscimol, reference compound]
enhancement of protein transduction by GABA agonist ([1]; 3 hours, 700 mOsm/Kg): approximately 300%

Compound: [Cl-].[Na+] [NaCl, Sodium chloride]
osmolality beyond which cell loss was observed [1, 5]: > 850 mOsm/Kg | osmolality of maximal β-Lactamase transduction [1, 5]: 700-800 mOsm/Kg | protein transducing activity of hypertonicity-inducing compound ([1]; 3 hours): the highest activity | effect of omitting buffer component on Oct4-reporter activation by Oct4-VP16 protein (COS7 cells): abrogated Oct4-reporter activation

Compound: C[C@@H]1[C@H](O)[C@@H](C)/C=C/C=C/CC/C=C/C=C/C=C/C=C/C(O[C@H]2O[C@H](C)[C@@H](O)[C@H](N)[C@@H]2O)CC2O[C@](O)(CC(O)C(O)CCC(O)CC(O)CC(O)CC(=O)O[C@H]1C)CC(O)C2C(=O)O (some centres unmarked) [Nystatin, reference compound]
effect of endocytic pathway inhibitor on protein transduction [1, 4]: ineffective in inhibiting protein transduction

Compound: O=C1NC(=NS(=O)(=O)c2cccc3ccccc23)S/C1=C\c1ccc(Br)cc1 [Pitstop2, reference compound]
effect of endocytic pathway inhibitor on protein transduction [1, 4]: ineffective in inhibiting protein transduction

Compound: [Cl-].[Rb+] [RbCl, rubidium chloride]
protein transducing activity of hypertonicity-inducing compound ([1]; 3 hours): the highest activity

Compound: CP(=O)(O)CCCN [SKF-97541, reference compound]
enhancement of protein transduction by GABA agonist ([1]; 3 hours, 700 mOsm/Kg): approximately 300%

Compound: O=C([O-])[C@H](O)[C@@H](O)[C@H](O)[C@H](O)CO.[Na+] [Sodium Gluconate]
protein transducing activity of hypertonicity-inducing compound ([1]; 3 hours): efficiency similar to NaCl and RbCl

protein transducing activity of hypertonicity-inducing compound ([1]; 3 hours): failed to induce protein transduction
Compound: OC[C@@H](O)[C@@H](O)[C@H](O)[C@@H](O)CO [Sorbitol]

protein transducing activity of hypertonicity-inducing compound ([1]; 3 hours): failed to induce protein transduction
Compound: OC[C@H]1O[C@@](CO)(O[C@H]2O[C@H](CO)[C@@H](O)[C@H](O)[C@H]2O)[C@@H](O)[C@@H]1O [Sucrose]

Compound: O=S(=O)([O-])CCC[n+]1ccccc1 [compound 1, 3-(1-pyridino)-1-propanesulfonate, reference compound]
Gal3-GFP localisation to macropinocytic vesicles (vesicle leakage) [2]: bright vesicle formation | time after initiation of transduction at which intracellular β-Lactamase activity could be observed ([1]; 1 μM β-Lactamase, 700 mOsm/Kg NaCl, 25 mM NDSB201): 2.5 h | effect of higher compound concentrations under hyperosmotic conditions ([1]; 700 mOsm/kg, above 10-25 mM): cell loss | protein transduction activity (in words) ([1]; 3 hours, 700 mOsm/Kg): most efficient | transduction compound concentration at peak β-Lactamase transduction ([1]; 3 hours, 700 mOsm/kg NaCl, 1 μM β-Lactamase): 10 to 25 mM | effect of omitting buffer component on Oct4-reporter activation by Oct4-VP16 protein (COS7 cells; COS7 cells): abrogated Oct4-reporter activation

protein transduction activity (in words) ([1]; 3 hours, 700 mOsm/Kg): most efficient
Compound: C[N+]1(CCCS(=O)(=O)[O-])CCCCC1 [compound 03, 3-(1-methylpiperidine)-1-propanesulfonate, reference compound]

Compound: CCC(C)(C)CCCS(=O)(=O)O [compound 07]
protein transduction activity (in words) ([1]; 3 hours, 700 mOsm/Kg): greatly diminished transduction activity | effect on cell proliferation / viability (BrdU incorporation, in words) [3]: severe cell cycle inhibition

protein transduction activity (in words) ([1]; 3 hours, 700 mOsm/Kg): little to no transduction activity
Compound: NCC(=O)O [compound 18, Glycine]
Gal3-GFP localisation to macropinocytic vesicles (vesicle leakage) [2]: did not localize into the macropinocytic vesicles | β-lactamase transduction activity when combined with reference compound #01 (reference set at 100%) ([1]; equimolar with NDSB201 (#01), 12.5 mM each, total 25 mM, 3 hours, 700 mOsm/Kg): approximately 15%

protein transduction activity (in words) ([1]; 3 hours, 700 mOsm/Kg): greatly diminished transduction activity
Compound: CCCCC(=O)O [compound 23, pentanoic acid]
effect on cell proliferation / viability (BrdU incorporation, in words) [3]: severe cell cycle inhibition

protein transduction activity (in words) ([1]; 3 hours, 700 mOsm/Kg): greatly diminished transduction activity
Compound: CCCCN [compound 24, n-butylamine]
effect on cell proliferation / viability (BrdU incorporation, in words) [3]: severe cell cycle inhibition

effect of growth factor or peptide on β-lactamase transduction of MEFs ([1]; 3 hours, 700 mOsm/Kg): doubling of β-lactamase uptake
Compound: EGF: epidermal growth factor

Compound: Insulin: Insulin
effect of growth factor or peptide on β-lactamase transduction of MEFs ([1]; 3 hours, 700 mOsm/Kg): small, but significant stimulatory effect

effect of growth factor or peptide on β-lactamase transduction of MEFs ([1]; 3 hours, 700 mOsm/Kg): doubling of β-lactamase uptake
Compound: PDGF
